pIC50: −log10 of the molar value.
Tests used:
[1] = tested on: IL-1β production in PMA-differentiated THP-1 cells; assay: IL-1β production in PMA-differentiated THP-1 cells stimulated with gramicidin (hTHP-1 assay, 2% fetal bovine serum); type: cell-based, human
Protocol: THP-1 cells were purchased from the American Type Culture Collection and sub-cultured according to instructions from the supplier. Cells were cultured in complete RPMI 1640 (containing 10% heat inactivated FBS, penicillin (100 units/ml) and streptomycin (100 μg/ml)), and maintained in log phase prior to experimental setup. Prior to the experiment, compounds were dissolved in dimethyl sulfoxide (DMSO) to generate a 30 mM stock. The compound stock was first pre-diluted in DMSO to 3, 0.34, 0.042 and 0.0083 mM intermediate concentrations and subsequently spotted using Echo550 liquid handler into an empty 384-well assay plate to achieve desired final concentration (e.g. 100, 33, 11, 3,7, 1.2, 0.41, 0.14, 0.046, 0.015, 0.0051, 0.0017 μM). DMSO was backfilled in the plate to achieve a final DMSO assay concentration of 0.37%. The plate was then sealed and stored at room temperature until required. THP-1 cells were treated with PMA (Phorbol 12-myristate 13-acetate) (20 ng/ml) for 16-18 hours. On the day of the experiment the media was removed and adherent cells were detached with trypsin for 5 minutes. Cells were then harvested, washed with complete RPMI 1640, spun down, and resuspended in RPMI 1640 (containing 2% heat inactivated FBS, penicillin (100 units/ml) and streptomycin (100 μg/ml). The cells were plated in the 384-well assay plate containing the spotted compounds at a density of 50,000 cells/well (final assay volume 50 μl). Ceils were incubated with compounds for 1 hour and then stimulated with gramicidin (5 μM) (Enzo) for 2 hours. Plates were then centrifuged at 340 g for 5 min. Cell free supernatant (40 μL) was collected using a 96-channel PlateMaster (Gilson) and the production of IL-1β was evaluated by HTRF (cisbio). The plates were incubated for 18 h at 4° C. and read using the preset HTRF program (donor emission at 620 nm, acceptor emission at 668 nm) of the SpectraMax i3x spectrophotometer (Molecular Devices, software SoftMax 6). A vehicle only control and a dose titration of CRID3 (100-0.0017 μM) were run concurrently with each experiment. Data was normalized to vehicle-treated samples (equivalent to 0% inhibition) and CRID3 at 100 μM (equivalent to 100% inhibition).
Procedure 2: IL-1β Production in PMA-Differentiated THP-1 Cells Stimulated with Gramicidin
THP-1 cells were purchased from the American Type Culture Collection and sub-cultured according to instructions from the supplier. Prior to experiments, cells were cultured in complete RPMI 1640 (containing 10% heat inactivated FBS, penicillin (100 units/ml) and streptomycin (100 μg/ml)), and maintained in log phase prior to experimental setup. Prior to the experiment THP-1 were treated with PMA (Phorbol 12-myristate 13-acetate) (20 ng/mi) for 16-18 hours. Compounds were dissolved in dimethyl sulfoxide (DMSO) to generate a 30 mM stock. On the day of the experiment the media was removed and adherent cells were detached with trypsin for 5 minutes. Cells were then harvested, washed with complete RPMI 1640, spun down, resuspended in RPMI 1640 (containing 2% heat inactivated FBS, penicillin (100 units/ml) and streptomycin (100 μg/ml), The cells were plated in a 384-well plate at a density of 50,000 cells/well (final assay volume 50 μl). Compounds were first dissolved in assay medium to obtain a 5× top concentration of 500 μM. 10 step dilutions (1:3) were then undertaken in assay medium containing 1.67% DMSO. 5× compound solutions were added to the culture medium to achieve desired final concentration (e.g. 100, 33, 11, 3.7, 1.2, 0.41, 0.14, 0.046, 0.015, 0.0051, 0.0017 μM). Final DMSO concentration was at 0.37%. Cells were incubated with compounds for 1 hour and then stimulated with gramicidin (5 μM) (Enzo) for 2 hours. Plates were then centrifuged at 340 g for 5 min. Cell free supernatant (40 μL) was collected using a 96-channel PlateMaster (Gilson) and the production of IL-1β was evaluated by HTRF (cisbio). […]

[2] = Colon pharmacokinetics in mice; type: in vivo; conditions: colon to plasma concentration ratio at 8 h time point, 30 mg/kg oral gavage in 0.5% methyl-cellulose, Male C57BL/6 Mouse; for Kp at 8 h: read-out: Mouse TD Colon/Plasma @ 8
Protocol: Assay 2: Colon Pharmacokinetics in Mice
The test compound was formulated in 0.5% methyl-cellulose in water and dosed via oral gavage at 30 mg/kg to Male C57BL/6 Mouse. At various time points (typically 15 min, 30 min, 1, 2, 4, 6 and 8 h) post dosing, blood samples were removed via cardiac […] puncture and intact colons were excised from the […]. Blood samples were centrifuged at 1500 x g for 15 min to collect plasma. At the terminal time point each individual animal is anaesthetized, abdominal cavity is opened and from 2 cm below the caecum a 4 cm sample of the colon is dissected, cut open on the longitudinal axis and the solid contents removed by flushing with 2 mL of physiological fluid. The colon was further washed by putting it in 5 mL of physiological saline and shaken for 1 minute. The colon was pet dry weighed and transferred in 2 mL tubes. Colon will be weighted and homogenized with water by tissue weight (g) to water volume (mL) at ratio 1:3 before analysis. The actual concentration is the detected value multiplied by the dilution factor. A colon to plasma ratio was determined as the ratio of the colon cone, to the plasma cone, in pg hr/g, at 8 h time point.

[3] = Homo sapiens, THP-1, average IC50, hTHP-1 assay containing 2% fetal bovine serum, class symbols
[4] = average IC50, hTHP-1 assay containing 2% fetal bovine serum, class symbols
[5] = Homo sapiens, THP-1, average IC50, hTHP-1 assay containing 2% fetal bovine serum, given as numeric bound

pIC50 [1, 3] | Compound | further results
6.00 to 6.70 | CNS(=O)(=O)c1ccc(S(=O)(=O)NC(=O)Nc2c3c(nc4c2CCC4)CCC3)c(CO)c1 [Compound 103] | –
5.30 to 6.00 | CC(C)c1cncc(C(C)C)c1NC(=O)NS(=O)(=O)c1sc(C(C)(C)O)nc1CO [Compound 104] | –
5.30 to 6.00 | CNS(=O)(=O)c1ccc(S(=O)(=O)NC(=O)Nc2c(C(C)C)cncc2C(C)C)c(CO)c1 [Compound 105] | –
6.00 to 6.70 | CC(C)c1cc2c(c(C(C)C)c1NC(=O)NS(=O)(=O)c1sc(C(C)(C)O)nc1CO)COC2 [Compound 106] | –
– | CC(C)c1nc(-c2cccc(C(F)(F)F)c2)c(F)c(C(C)C)c1NC(=O)NS(=O)(=O)c1sc(C(C)(C)O)nc1CO[Si](C)(C)C(C)(C)C [Compound 107] | pIC50 ([1]; Homo sapiens, THP-1): 5.30 to 6.00
5.30 to 6.00 | CNS(=O)(=O)c1ccc(S(=O)(=O)NC(=O)Nc2c3c(nc4c2CCC4)CCC3)c(OC)c1 [Compound 108] | –
5.30 to 6.00 | CNS(=O)(=O)c1ccc(S(=O)(=O)NC(=O)Nc2c(C(C)C)cncc2C(C)C)cc1CO [Compound 109] | –
5.30 to 6.00 | CC(C)(O)c1nc(CO)c(S(=O)(=O)NC(=O)Nc2c3c(nc4c2CCC4)CCC3)s1 [Compound 111] | –
5.30 to 6.00 | CC(C)c1c(F)c(C#N)cc(C2CCOCC2)c1NC(=O)NS(=O)(=O)c1sc(C(C)(C)O)nc1CO [Compound 112] | –
4.52 to 5.30 | CC(C)c1cc(C#N)cc(CCO)c1NC(=O)NS(=O)(=O)c1sc(C(C)(C)O)nc1CO [Compound 114] | –
4.52 to 5.30 | CNS(=O)(=O)c1ccc(S(=O)(=O)NC(=O)Nc2c(C(C)C)cc(C#N)cc2C(C)C)c(C(=O)OC)c1 [Compound 115] | –
6.70 to 7.40 | CNS(=O)(=O)c1ccc(S(=O)(=O)NC(=O)Nc2c(C(C)C)cc(C#N)c(F)c2C(C)C)c(O)c1 [Compound 117] | –
– | CNS(=O)(=O)c1ccc(S(=O)(=O)NC(=O)Nc2c(C(C)C)cc(C#N)c(F)c2C(C)C)c(OC)c1 [Compound 118] | pIC50 [1, 4]: 6.00 to 6.70; Kp at 8 h [2]: 5950
6.70 to 7.40 | CNS(=O)(=O)c1ccc(S(=O)(=O)NC(=O)Nc2c(C(C)C)cc(C#N)cc2C(C)C)c(O)c1 [Compound 119] | –
– | CNS(=O)(=O)c1ccc(S(=O)(=O)NC(=O)Nc2c(C(C)C)cc(C#N)c(F)c2C(C)C)c(OC)c1 [Compound 120] | pIC50 [1, 4]: 6.70 to 7.40
5.30 to 6.00 | CC(C)c1cc(C#N)cc(C2CC2)c1NC(=O)NS(=O)(=O)c1sc(C(C)(C)O)nc1CO [Compound 121] | –
6.00 to 6.70 | CC(C)(O)c1nc(CO)c(S(=O)(=O)NC(=O)Nc2c3c(nc4c2CCC4(C)C)CCC3)s1 [Compound 201] | –
6.00 to 6.70 | CC1CCc2c1nc1c(c2NC(=O)NS(=O)(=O)c2sc(C(C)(C)O)nc2CO)CCC1 (stereo not shown) [Compound 202] | –
5.30 to 6.00 | CNS(=O)(=O)c1ccc(S(=O)(=O)NC(=O)Nc2c3c(nc4c2CCC4C)CCC3)c(CO)c1 (stereo not shown) [Compound 203] | –
– | CC(C)c1c(F)c(C#N)cc(C2CCOCC2)c1NC(=O)NS(=O)(=O)c1sc(C(C)(C)O)nc1CO [Compound 204] | pIC50 [1, 5]: < 4.82
6.00 to 6.70 | CC(C)c1cc(C#N)c(F)c(C(C)C)c1NC(=O)NS(=O)(=O)c1cc(C(C)(C)O)no1 [Compound 301] | –
– | Cc1cc(C(=O)NCCc2ccc(S(=O)(=O)NC(=O)Nc3c(C(C)C)cc(C#N)cc3C(C)C)cc2)no1 [Compound 302] | pIC50 [1, 5]: < 4.52
– | Cc1cc(C(=O)NCCc2ccc(S(=O)(=O)NC(=O)Nc3c4c(cc5c3CCC5)CCC4)cc2)no1 [Compound 303] | pIC50 [1, 5]: < 4.52
4.52 to 5.30 | COC(=O)c1sc2c(c1NC(=O)NS(=O)(=O)c1ncc(C(C)(C)O)s1)CCCC2 [Compound 304] | –
– | O=C(CCCC[C@@H]1SC[C@@H]2NC(=O)N[C@@H]21)NCCCn1cc(CCC(=O)Nc2cccc(S(=O)(=O)NC(=O)Nc3c4c(cc5c3CCC5)CCC4)c2)nn1 [Compound 324] | pIC50 [1, 5]: < 4.52

Compound | pIC50 [1, 3] | further results
CC(C)c1cc(C#N)cc(C(C)C)c1NC(=O)NS(=O)(=O)c1sc(C(C)(C)O)nc1CO [Compound 101] | 6.00 to 6.70 | Kp at 8 h [2]: 3000
CC(C)c1cc(C#N)c(F)c(C(C)C)c1NC(=O)NS(=O)(=O)c1sc(C(C)(C)O)nc1CCO [Compound 102] | 6.70 to 7.40 | Kp at 8 h [2]: 802
CCC(C)c1cc(C#N)c(F)c(C(C)C)c1NC(=O)NS(=O)(=O)c1sc(C(C)(C)O)nc1CO (stereo not shown) [Compound 113] | 6.00 to 6.70 | Kp at 8 h [2]: 4560
CNS(=O)(=O)c1ccc(S(=O)(=O)NC(=O)Nc2c(C(C)C)cc(C#N)cc2C(C)C)c(CO)c1 [Compound 116] | 6.00 to 6.70 | Mouse TD Colon/Plasma @ 8 [2]: 18,645
CC(C)(O)c1nc(CO)c(S(=O)(=O)NC(=O)Nc2c3c(c(C#N)c4c2CCC4)CCC3)s1 [Compound 122] | 5.30 to 6.00 | Kp at 8 h [2]: 3530
CC(C)c1cc(C#N)c(F)c(C(C)C)c1NC(=O)NS(=O)(=O)c1sc(C(C)(C)O)nc1CO [Compound 123] | 6.00 to 6.70 | Mouse TD Colon/Plasma @ 8 [2]: 12,731
CNS(=O)(=O)c1ccc(S(=O)(=O)NC(=O)Nc2c3c(cc4c2CCC4)CCC3)c(O)c1 [Compound 124] | 4.52 to 5.30 | Kp at 8 h [2]: 26

Reference: patent US20220267276A1, “NLRP MODULATORS” (Novartis AG, priority 2018, published 2022)
